In patent US12083124B2 (Incyte Corporation, priority 2019, dated 2024):
Like-named read-outs stand apart in the source and are kept apart here.

Tests used:
[1] = target: wild-type un-phosphorylated FGFR1 (Homo sapiens, UniProt P11362); assay: FGFR Enzymatic Assay (FRET peptide phosphorylation), FGFR1; conditions: pre-incubated for 4 hours
[2] = target: wild-type un-phosphorylated FGFR3 (Homo sapiens, UniProt P22607); assay: FGFR Enzymatic Assay (FRET peptide phosphorylation), FGFR3
[3] = target: wild-type un-phosphorylated FGFR2 (Homo sapiens, UniProt P21802); assay: FGFR Enzymatic Assay (FRET peptide phosphorylation), FGFR2
Chain of wild-type un-phosphorylated FGFR2 (P21802 22-821): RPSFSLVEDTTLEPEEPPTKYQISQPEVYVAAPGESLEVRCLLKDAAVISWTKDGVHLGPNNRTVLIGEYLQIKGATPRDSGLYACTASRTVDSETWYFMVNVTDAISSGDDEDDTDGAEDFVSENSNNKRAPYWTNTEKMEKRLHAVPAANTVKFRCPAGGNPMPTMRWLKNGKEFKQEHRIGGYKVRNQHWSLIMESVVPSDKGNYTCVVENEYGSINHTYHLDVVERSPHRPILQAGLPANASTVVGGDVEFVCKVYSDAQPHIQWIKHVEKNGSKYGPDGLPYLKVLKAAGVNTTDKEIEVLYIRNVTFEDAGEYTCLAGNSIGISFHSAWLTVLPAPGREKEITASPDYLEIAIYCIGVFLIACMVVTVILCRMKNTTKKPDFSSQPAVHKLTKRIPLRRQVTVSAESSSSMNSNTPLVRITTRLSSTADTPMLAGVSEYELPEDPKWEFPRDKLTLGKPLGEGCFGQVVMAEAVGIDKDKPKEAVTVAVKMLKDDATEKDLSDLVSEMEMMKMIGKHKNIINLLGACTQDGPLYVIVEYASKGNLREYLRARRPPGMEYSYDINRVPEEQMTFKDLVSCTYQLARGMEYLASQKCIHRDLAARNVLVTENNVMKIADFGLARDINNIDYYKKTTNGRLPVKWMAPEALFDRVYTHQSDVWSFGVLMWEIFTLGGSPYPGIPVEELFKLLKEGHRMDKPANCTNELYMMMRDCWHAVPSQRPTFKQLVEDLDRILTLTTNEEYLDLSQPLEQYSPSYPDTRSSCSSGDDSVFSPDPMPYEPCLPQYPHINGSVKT
Experimental: The inhibitor potency of the exemplified compounds was determined in an enzyme discontinuous assay that measures peptide phosphorylation using FRET measurements to detect product formation. Inhibitors were serially diluted in DMSO and a volume of 0.2 μL was transferred to the wells of a 384-well plate. […] Appropriate controls (enzyme blank and enzyme with no inhibitor) were included on the plate. […] The 10 μL/well reaction concentration of the peptide substrate was 500 nM whereas the ATP concentration was maintained near or below the ATP Km. The ATP Km values were pre-determined in a separate series of experiments. The reaction plate was incubated at 25° C. for 1 hr and the reactions were ended with the addition of 5 μL/well of quench solution (50 mM Tris, 150 mM NaCl, 0.5 mg/mL BSA, pH 7.8; 45 mM EDTA, 600 nM staurosporin, with Perkin Elmer Lance Reagents at 3.75 nM Eu-antibody PY20 and 180 nM APC-Streptavidin). The plate was allowed to equilibrate for ˜10 minutes at ambient temperature before scanning on a PheraStar plate reader (BMG Labtech) instrument.
Either GraphPad prism or XLfit was used to analyze the data. The IC50 values were derived by fitting the data to a four parameter logistic equation producing a sigmoidal dose-response curve with a variable Hill coefficient. Prism equation: Y=Bottom+(Top-Bottom)/(1+10^((Log IC50-X)*Hill slope)); XLfit equation: Y=(A+((B−A)/(1+((X/C)^D)))) where X is the logarithm of inhibitor concentration and Y is the response.
GraphPad prism3 was used to analyze the data. The IC50 values were derived by fitting the data to the equation for a sigmoidal dose-response with a variable slope. Y=Bottom+(Top-Bottom)/(1+10^((Log IC50-X)*Hill Slope)) where X is the logarithm of concentration and Y is the response.
The data in Table 1 was measured in wild-type un-phosphorylated FGFR1, FGFR2, FGFR3, and FGFR4 proteins.

[4] = FGFR1, wild-type un-phosphorylated FGFR1
[5] = read-out: FGFR3, wild-type un-phosphorylated FGFR3, pre-incubated for 4 hours
[6] = read-out: FGFR1, wild-type un-phosphorylated FGFR1
[7] = read-out: FGFR2, wild-type un-phosphorylated FGFR2, pre-incubated for 4 hours

Chain of wild-type un-phosphorylated FGFR1 (P11362 22-822): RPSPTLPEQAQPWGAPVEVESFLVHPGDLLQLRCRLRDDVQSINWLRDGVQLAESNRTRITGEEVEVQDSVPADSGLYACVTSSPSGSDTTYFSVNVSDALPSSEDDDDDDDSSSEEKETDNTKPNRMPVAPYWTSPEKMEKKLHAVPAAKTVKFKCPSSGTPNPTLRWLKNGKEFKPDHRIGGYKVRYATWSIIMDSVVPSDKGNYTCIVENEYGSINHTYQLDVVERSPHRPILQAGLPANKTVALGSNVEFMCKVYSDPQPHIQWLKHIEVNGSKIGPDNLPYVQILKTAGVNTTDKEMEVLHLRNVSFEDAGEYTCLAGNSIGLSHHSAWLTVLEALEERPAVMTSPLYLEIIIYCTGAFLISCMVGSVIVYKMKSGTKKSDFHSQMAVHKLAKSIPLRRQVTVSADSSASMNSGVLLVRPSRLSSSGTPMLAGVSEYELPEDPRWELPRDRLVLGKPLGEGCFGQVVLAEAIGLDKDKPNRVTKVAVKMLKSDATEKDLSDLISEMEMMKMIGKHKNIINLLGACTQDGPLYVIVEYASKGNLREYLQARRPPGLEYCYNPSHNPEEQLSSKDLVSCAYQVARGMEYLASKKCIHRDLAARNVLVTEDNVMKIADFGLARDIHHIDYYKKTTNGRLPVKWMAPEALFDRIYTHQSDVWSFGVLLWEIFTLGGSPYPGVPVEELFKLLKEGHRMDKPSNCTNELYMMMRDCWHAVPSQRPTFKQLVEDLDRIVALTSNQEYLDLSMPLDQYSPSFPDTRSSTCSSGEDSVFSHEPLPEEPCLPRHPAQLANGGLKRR
Chain of wild-type un-phosphorylated FGFR3 (P22607 23-806): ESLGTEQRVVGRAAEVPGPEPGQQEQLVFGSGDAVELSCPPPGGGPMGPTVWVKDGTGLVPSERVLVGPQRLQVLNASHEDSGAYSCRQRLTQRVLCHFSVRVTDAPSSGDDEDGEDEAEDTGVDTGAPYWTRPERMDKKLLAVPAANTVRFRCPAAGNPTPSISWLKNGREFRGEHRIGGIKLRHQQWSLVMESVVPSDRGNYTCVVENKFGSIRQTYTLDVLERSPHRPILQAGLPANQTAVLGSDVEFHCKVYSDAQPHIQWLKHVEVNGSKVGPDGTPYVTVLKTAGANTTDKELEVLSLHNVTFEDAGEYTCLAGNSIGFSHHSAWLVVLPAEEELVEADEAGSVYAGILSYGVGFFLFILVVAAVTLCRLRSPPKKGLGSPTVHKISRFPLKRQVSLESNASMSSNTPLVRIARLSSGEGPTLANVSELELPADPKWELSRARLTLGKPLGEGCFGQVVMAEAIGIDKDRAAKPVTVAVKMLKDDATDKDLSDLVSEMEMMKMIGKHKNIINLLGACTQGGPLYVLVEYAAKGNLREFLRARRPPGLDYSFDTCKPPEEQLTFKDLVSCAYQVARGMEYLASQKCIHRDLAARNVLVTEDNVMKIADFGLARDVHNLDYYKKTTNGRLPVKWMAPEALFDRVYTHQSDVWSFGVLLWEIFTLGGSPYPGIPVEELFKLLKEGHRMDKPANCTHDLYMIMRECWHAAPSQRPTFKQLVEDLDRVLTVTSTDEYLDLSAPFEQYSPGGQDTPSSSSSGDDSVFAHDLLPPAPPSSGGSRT

IC50 [1, 4] [nM]	IC50 [2] [nM]	IC50 [2, 5] [nM]	IC50 [3] [nM]	IC50 [1, 6] [nM]	IC50 [3, 7] [nM]	SMILES
40 to 100	< 6					COc1cc2[nH]nc(-c3cnn(C)c3)c2nc1-c1cccc2c1CCC2O (single isomer, unassigned) [Example 7, 4-(6-Methoxy-3-(1-methyl-1H-pyrazol-4-yl)-1H-pyrazolo[4,3-b]pyridin-5-yl)-2,3-dihydro-1H-inden-1-ol]
> 100		< 6				COc1cc2[nH]nc(-c3cnn(C)c3)c2nc1-c1cccc2c1CCC2O (single isomer, unassigned) [Example 8, 4-(6-Methoxy-3-(1-methyl-1H-pyrazol-4-yl)-1H-pyrazolo[4,3-b]pyridin-5-yl)-2,3-dihydro-1H-inden-1-ol]
40 to 100	< 6		< 6			COc1cc2[nH]nc(-c3cnn(C)c3)c2nc1-c1cccc2c1CCC2CO (single isomer, unassigned) [Example 11, (4-(6-Methoxy-3-(1-methyl-1H-pyrazol-4-yl)-1H-pyrazolo[4,3-b]pyridin-5-yl)-2,3-dihydro-1H-inden-1-yl)methanol]
		< 6		40 to 100	< 6	COc1cc2[nH]nc(-c3cnn(C)c3)c2nc1-c1cccc2c1CCC2CO (single isomer, unassigned) [Example 12, (4-(6-Methoxy-3-(1-methyl-1H-pyrazol-4-yl)-1H-pyrazolo[4,3-b]pyridin-5-yl)-2,3-dihydro-1H-inden-1-yl)methanol]
40 to 100	< 6				6 to 40	Cn1cc(-c2n[nH]c3cc(Cl)c(-c4cccc5c4CC(O)C5)nc23)cn1 (single isomer, unassigned) [Example 39, 4-(6-Chloro-3-(1-methyl-1H-pyrazol-4-yl)-1H-pyrazolo[4,3-b]pyridin-5-yl)-2,3-dihydro-1H-inden-2-ol]
40 to 100	< 6				6 to 40	COc1cc2[nH]nc(-c3ccc(OC4CCOC4)nc3)c2nc1-c1cccc2c1CC(O)C2 (single isomer, unassigned) [Example 73, 4-(6-Methoxy-3-(6-((tetrahydrofuran-3-yl)oxy)pyridin-3-yl)-1H-pyrazolo[4,3-b]pyridin-5-yl)-2,3-dihydro-1H-inden-2-ol]
	< 6		< 6	6 to 40		COc1cc2[nH]nc(-c3ccc(C4CC(=O)N(C)C4)nc3)c2nc1-c1cccc2c1CCC2C#N (single isomer, unassigned) [Example 75, 4-(6-Methoxy-3-(6-(1-methyl-5-oxopyrrolidin-3-yl)pyridin-3-yl)-1H-pyrazolo[4,3-b]pyridin-5-yl)-2,3-dihydro-1H-indene-1-carbonitrile]
		< 6		6 to 40	< 6	COc1cc2[nH]nc(-c3ccc(C4CC(=O)N(C)C4)nc3)c2nc1-c1cccc2c1CCC2C#N (single isomer, unassigned) [Example 76, 4-(6-Methoxy-3-(6-(1-methyl-5-oxopyrrolidin-3-yl)pyridin-3-yl)-1H-pyrazolo[4,3-b]pyridin-5-yl)-2,3-dihydro-1H-indene-1-carbonitrile]
	< 6		< 6	6 to 40		COc1cc2[nH]nc(-c3ccc(C4CCN(C(=O)[C@H](C)O)CC4)nc3)c2nc1-c1cccc2c1CC(F)C2 (single isomer, unassigned) [Example 81]
40 to 100	< 6					COc1cc2[nH]nc(-c3cnn(C)c3)c2nc1-c1cccc2c1CCC2C#N (stereo not drawn) [Example 9, 4-(6-Methoxy-3-(1-methyl-1H-pyrazol-4-yl)-1H-pyrazolo[4,3-b]pyridin-5-yl)-2,3-dihydro-1H-indene-1-carbonitrile]
> 100	< 6					COc1cc2[nH]nc(-c3cnn(C)c3)c2nc1-c1cccc2c1C[C@H](F)[C@@H]2O [Example 13, 2-Fluoro-4-(6-methoxy-3-(1-methyl-1H-pyrazol-4-yl)-1H-pyrazolo[4,3-b]pyridin-5-yl)-2,3-dihydro-1H-inden-1-ol]
40 to 100	< 6					COc1cc2[nH]nc(-c3cnn(C4CCNC4)c3)c2nc1-c1cccc2c1CCC2 (stereo not drawn) [Example 14, 5-(2,3-Dihydro-1H-inden-4-yl)-6-methoxy-3-(1-(pyrrolidin-3-yl)-1H-pyrazol-4-yl)-1H-pyrazolo[4,3-b]pyridine]
40 to 100	< 6					CCN1CCC(n2cc(-c3n[nH]c4cc(OC)c(-c5cccc6c5CCC6)nc34)cn2)C1 (stereo not drawn) [Example 15, 5-(2,3-Dihydro-1H-inden-4-yl)-3-(1-(1-ethylpyrrolidin-3-yl)-1H-pyrazol-4-yl)-6-methoxy-1H-pyrazolo[4,3-b]pyridine]
> 100	< 6					CCOc1cc2[nH]nc(-c3cnn(C)c3)c2nc1-c1cccc2c1CCC2 [Example 26, 5-(2,3-Dihydro-1H-inden-4-yl)-6-ethoxy-3-(1-methyl-1H-pyrazol-4-yl)-1H-pyrazolo[4,3-b]pyridine]
> 100	< 6					COc1cc2[nH]nc(-c3cnn(-c4ccncc4)c3)c2nc1-c1cccc2c1CCC2 [Example 32, 5-(2,3-Dihydro-1H-inden-4-yl)-6-methoxy-3-(1-(pyridin-4-yl)-1H-pyrazol-4-yl)-1H-pyrazolo[4,3-b]pyridine]
40 to 100	< 6					Cn1cc(-c2n[nH]c3cc(C(F)F)c(-c4cccc5c4CCC5)nc23)cn1 [Example 35, 6-(Difluoromethyl)-5-(2,3-dihydro-1H-inden-4-yl)-3-(1-methyl-1H-pyrazol-4-yl)-1H-pyrazolo[4,3-b]pyridine]
> 100	< 6					CNc1cc2[nH]nc(-c3cnn(C)c3)c2nc1-c1cccc2c1CCC2 [Example 37, 5-(2,3-Dihydro-1H-inden-4-yl)-N-methyl-3-(1-methyl-1H-pyrazol-4-yl)-1H-pyrazolo[4,3-b]pyridin-6-amine]
40 to 100	< 6					COc1cc2[nH]nc(-c3ccc(N4CCN(C)[C@H](C)C4)nc3)c2nc1-c1cccc(C)c1C [Example 47, (R)-5-(2,3-Dimethylphenyl)-3-(6-(3,4-dimethylpiperazin-1-yl)pyridin-3-yl)-6-methoxy-1H-pyrazolo[4,3-b]pyridine]
40 to 100	< 6					COc1cc2[nH]nc(-c3ccc(N4C[C@@H]5C[C@H]4CN5C)nc3)c2nc1-c1cccc(C)c1C [Example 49, 5-(2,3-Dimethylphenyl)-6-methoxy-3-(6-((1S,4S)-5-methyl-2,5-diazabicyclo[2.2.1]heptan-2-yl)pyridin-3-yl)-1H-pyrazolo[4,3-b]pyridine]
40 to 100	< 6					COc1cc2[nH]nc(-c3cnn([C@H]4CC[C@@H](NC(C)=O)CC4)c3)c2nc1-c1cccc2c1CCC2 [Example 53, N-((cis)-4-(4-(5-(2,3-Dihydro-1H-inden-4-yl)-6-methoxy-1H-pyrazolo[4,3-b]pyridin-3-yl)-1H-pyrazol-1-yl)cyclohexyl)acetamide]
40 to 100	< 6					COc1cc2[nH]nc(-c3ccc(N4CCN(C)CC4C)nc3)c2nc1-c1cccc2c1CCC2 (stereo not drawn) [Example 54, 5-(2,3-Dihydro-1H-inden-4-yl)-3-(6-(2,4-dimethylpiperazin-1-yl)pyridin-3-yl)-6-methoxy-1H-pyrazolo[4,3-b]pyridine]
> 100	< 6					COc1cc2[nH]nc(-c3ccc(N4CCN(C(C)=O)CC4)nc3)c2nc1-c1cccc(CC#N)c1C [Example 55, 2-(3-(3-(6-(4-Acetylpiperazin-1-yl)pyridin-3-yl)-6-methoxy-1H-pyrazolo[4,3-b]pyridin-5-yl)-2-methylphenyl)acetonitrile]
	< 6			6 to 40		COc1cc2[nH]nc(-c3ccc(N4CCN(C(C)=O)CC4)nc3)c2nc1-c1cccc2c1CCC2 [Example 64, 1-(4-(5-(5-(2,3-Dihydro-1H-inden-4-yl)-6-methoxy-1H-pyrazolo[4,3-b]pyridin-3-yl)pyridin-2-yl)piperazin-1-yl)ethan-1-one]
> 100	< 6					COc1cc2[nH]nc(-c3cnn(C4CC4)c3)c2nc1-c1cccc(C)c1C [Example 67, 3-(1-Cyclopropyl-1H-pyrazol-4-yl)-5-(2,3-dimethylphenyl)-6-methoxy-1H-pyrazolo[4,3-b]pyridine]
> 100	< 6					COc1cc2[nH]nc(-c3cnn(C4CCN(C(C)=O)CC4)c3)c2nc1-c1cccc(C)c1C [Example 69, 1-(4-(4-(5-(2,3-Dimethylphenyl)-6-methoxy-1H-pyrazolo[4,3-b]pyridin-3-yl)-1H-pyrazol-1-yl)piperidin-1-yl)ethan-1-one]
> 100	< 6					COC(=O)N1CCC(n2cc(-c3n[nH]c4cc(OC)c(-c5cccc(C)c5C)nc34)cn2)CC1 [Example 70, Methyl 4-(4-(5-(2,3-dimethylphenyl)-6-methoxy-1H-pyrazolo[4,3-b]pyridin-3-yl)-1H-pyrazol-1-yl)piperidine-1-carboxylate]
> 100	< 6					COC(=O)N1CC(n2cc(-c3n[nH]c4cc(OC)c(-c5cccc(C)c5C)nc34)cn2)C1 [Example 71, Methyl 3-(4-(5-(2,3-dimethylphenyl)-6-methoxy-1H-pyrazolo[4,3-b]pyridin-3-yl)-1H-pyrazol-1-yl)azetidine-1-carboxylate]
40 to 100	< 6					COc1cc2[nH]nc(-c3ccc(N4CC[C@H](N(C)C(=O)CO)C4)nc3)c2nc1-c1cccc(C)c1C [Example 88, (S)-N-(1-(5-(5-(2,3-Dimethylphenyl)-6-methoxy-1H-pyrazolo[4,3-b]pyridin-3-yl)pyridin-2-yl)pyrrolidin-3-yl)-2-hydroxy-N-methylacetamide]
